We go through 13 compounds from ChEMBL document CHEMBL1128188, “Neurosteroid analogues. 3. The synthesis and electrophysiological evaluation of benz[e]indene congeners of neuroactive steroids having the 5 beta-configuration” (1995).

Each structure is given as a SMILES string. Active and inactive are the calls of the source. The calls are words filed in the database; no cut-off is given here.

Assay type in all cases: functional
The species named for test [1] is Rattus norvegicus. Description: The Magnitude of the peak current produced by 1 uM GABA plus 1 uM compound was normalized with respect to the peak current produced by 1 uM GABA alone on the same cell.
The species entered for test [2] is Rattus norvegicus. Briefly: The compound gated current reflects the peak current directly gated by 10 uM compound in the absence of GABA compared to the response obtained from the same cell in response to 1 uM GABA alone.
For test [3], the species on record is Rattus norvegicus. Briefly: The compound gated current reflects the peak current directly gated by 10 uM compound in the absence of GABA compared to the response obtained from the same cell in response to 1 uM GABA alone; No response.
Test [4] is filed under the species Rattus norvegicus. Briefly: The Magnitude of the peak current produced by 1 uM GABA plus 1 uM compound was normalized with respect to the peak current produced by 1 uM GABA alone on the same cell. Values are mean+/-SEM.

Turning to `CC(=O)C1CCC2C3CC[C@H](CCO)CC3CC[C@]12C` (stereo partly specified), the Response in the test listed under Rattus norvegicus [1] was 213%. This compound yielded an Effect in the test filed under Rattus norvegicus [2] of 43.

`C[C@]12CCC3C[C@@H](CCO)CCC3C1CCC2=O` (stereo partly specified): the Response in the test listed under Rattus norvegicus [1] is given as 197%. Moreover, the Effect result in the test filed under Rattus norvegicus [3] was “inactive”.

With `CC(=O)[C@@H]1CC[C@H]2[C@@H]3CC[C@H]4C[C@H](O)CCC4[C@H]3CC[C@]12C` (stereo partly specified), in the test listed under Rattus norvegicus [1], the Response worked out at 521%. Further, the Effect in the test filed under Rattus norvegicus [2] came out at 144.

Consider `C[C@]12CC[C@@H]3C4CC[C@@H](O)C[C@H]4CC[C@H]3[C@@H]1CC[C@H]2C#N` (stereo partly specified), for which, in the test filed under Rattus norvegicus [1], the Response is recorded as 443%. Also, the Effect in the test listed under Rattus norvegicus [2] is given as 49.

`C[C@]12CC[C@@H]3C4CC[C@@H](O)C[C@@H]4CC[C@H]3[C@@H]1CC[C@H]2C#N` (stereo partly specified): in the test listed under Rattus norvegicus [1], the Response is 514%. In the test filed under Rattus norvegicus [2], this compound displayed an Effect of 166.

Turning to `C[C@]12CCC3C[C@H](CCO)CCC3C1CC[C@@H]2C#N` (stereo partly specified), the Response in the test filed under Rattus norvegicus [1] came out at 346%. In the test listed under Rattus norvegicus [3], the Effect result is “inactive”.

As for `CC(=O)[C@@H]1CC[C@H]2[C@@H]3CC[C@@H]4C[C@H](O)CCC4[C@H]3CC[C@]12C` (stereo partly specified), in the test listed under Rattus norvegicus [1], the Response came out at 523%. This compound also came in with an Effect in the test filed under Rattus norvegicus [2] of 30.

Take `C[C@]12CCC3C[C@@H](CCO)CCC3C1CC[C@@H]2O` (stereo partly specified): the Response in the test listed under Rattus norvegicus [1] worked out at 93%. Further, in the test filed under Rattus norvegicus [3], the Effect entry was “inactive”.

For the compound `CC(=O)[C@H]1CCC2C3CC[C@H](CCO)CC3CC[C@@]21C` (stereo partly specified), in the test filed under Rattus norvegicus [1], the Response came to 312%. This compound also gave an Effect in the test listed under Rattus norvegicus [2] of 113.

On to `CC(C)(C)O[C@H]1CCC2C3CC[C@H](CCO)CC3CC[C@@]21C` (stereo partly specified), for which the Response in the test listed under Rattus norvegicus [1] turned out to be 114%. The Effect result in the test filed under Rattus norvegicus [3] is “inactive”.

On to `C[C@]12CCC3C[C@@H](CCO)CCC3C1CC[C@@H]2C#N` (stereo partly specified), for which the Response in the test filed under Rattus norvegicus [1] was 497%. In addition, in the test listed under Rattus norvegicus [2], the Effect is on record as 115.

As for `CC(=O)[C@H]1CCC2C3CC[C@@H](CCO)CC3CC[C@@]21C` (stereo partly specified), in the test listed under Rattus norvegicus [3], the Effect entry was “inactive”. In the test listed under Rattus norvegicus [4], the Response turned out to be 489%.

`C[C@]12CCC3C[C@@H](CCO)CCC3C1CCC2C#N` (stereo partly specified): the Response in the test listed under Rattus norvegicus [1] is on record as 104%. In the test filed under Rattus norvegicus [3], the Effect result is “inactive”.
